Values quoted from earlier work, collected in patent publication US10104888B2, “Tannin-chitosan composites” (WISCONSIN ALUMNI RESEARCH FOUNDATION, priority 2009, dated 2018).

Details: in vivo

## poly(β-(1→4)-2-amino-2-deoxy-D-glucopyranose) [Chitosan]
  LD50: > 16000 mg/kg
